Experimental data reported in patent US7410979B2, “Synergistically effective combinations of dihaloacetamide compounds and interferon or ribavirin against HCV infections” (Rigel Pharmaceuticals, Inc., priority 2003, dated 2008).

Test system: HCV NS3
Assay: Quantitative Western blot of HCV NS3 in replicon cells
Assay type: cell-based
Experimental: Certain exemplary synergistic combinations of the invention can also be tested for their ability to inhibit HCV replication using a quantitative Western blot analysis with antibodies specific for the HCV nonstructural protein NS3. Actively dividing 9-13 replicon cells can be seeded into 6-well plates at a density of 1×10^5 cells/well in a volume of 2 ml/well and can be incubated at 37° C. and 5% CO2 for 24 hours. Various concentrations of test compounds (in a volume of 10 ul) were can be added to the wells and the cells can be incubated for another 48 hours. Protein samples can be prepared from the cultured cells, then could be resolved on a SDS-PAGE gel and then could be transferred to a nitrocellulose membrane. The membrane can be blocked with 5% non-fat milk in PBS for 1 hour at room temperature. Primary antibody (anti NS3 antibody; Rigel Pharmaceuticals, South San Francisco, Calif.) incubation can be performed for 1 hour at room temperature, after which the membrane can be washed 3 times (for 15 min per time) with PBST (PBS plus 0.1% Tween 20). Horseradish peroxidase conjugated secondary antibody incubation can be performed for 1 hour at room temperature and the membrane can be washed 3 times (for 15 min per time) with PBST. The membrane can then be soaked in substrate solution (Pierce) and can then be exposed to a film or quantified using an imager. In this assay, the amount of test synergetic combination that yields a 50% reduction in the amount of NS3 protein translated as compared to a control sample (IC50) can be determined.

Compound | HCV NS3 protein level (FIG. 2, 100 nM of compound I and 20 μm ribavirin) | synergy between compound I and ribavirin (FIG. 2, ribavirin at constant concentration, concentration of compound I varied) | synergistic effects on HCV replication (FIG. 3, compound I, interferon-α and ribavirin) | HCV NS3 (FIGS. 3(c) and 3(d), increasing concentrations of compound I in combination with interferon-α and ribavirin) | effectiveness against HCV replication, as indicated by the reduction of HCV NS3 in replicon cells (FIG. 3(a), interferon-α alone at elevated concentrations)
O=C(Nc1ccnc(-c2cc(-c3c(Cl)cccc3Cl)no2)c1)C(Cl)Cl [compound I] | eliminated | synergy | synergistic effects | effectively eliminates | –
interferon-α | – | – | – | – | effective
